# Data: patent EP0315861A1, “Antimycotic compositions of a nikkomycin compound and an antimycotic azole” (BAYER AG, priority 1987, dated 1989)
# Legend:
# [1] = tested on: Candida albicans-Strang B311; assay: checkerboard in vitro synergy test (microtiter plates, growth inhibition endpoints, isobolograms); assay type: cell-based; conditions: combination with Nikkomycin versus azole alone
# Description: Um die Eignung von Nikkomycinen und Azolen hinsichtlich der synergistischen Wirkung zu testen, wurde ein schachbrettartiger in vitro-Versuch mit der Hefe Candida albicans durchgeführt.
# Ein Candida albicans-Strang B311 wurde über Nacht in einer Glucose-Hefeextrakt-Kultur gezüchtet, gewaschen und auf die gewünschte Dichte gebracht.
# Die Tests wurden in 96-Loch-Mikrotiterplatten durchgeführt, wobei man eine Hefestickstoffkultur mit Dextrose und Asparagin als Wachstumsmedium verwendete. Die Testmaterialien wurden gelöst, serienmässig verdünnt und dann in die geeigneten Löcher der Mikrotiterplatten überführt, so dass die Endkonzentrationen von 0,02 bis 1 mMol für die Nikkomycine, und 0,06 bis 64 µg für die Azole betrugen. Alle Löcher wurden mit 10.000 Organismen/ml (Endkonzentration) geimpft,und die Platten bei Raumtemperatur 48 Stunden lang inkubiert. Die Platten wurden dann ausgewertet,und die Wachstumsrate für jedes Loch festgestellt. Die Endpunkte wurden für jede Reihe als niedrigste Konzentration, die eine vollständige Inhibierung des Wachstums zeigte, bestimmt. Die Daten wurden als Isobologramme geplottet, die die Endpunkte für die einzelnen Verbindungen als auch die Endpunkte für die verschiedenen Kombinationen zeigten. […]
# C. albicans = assay: septic murine candidosis model, oral therapy; assay type: in vivo, CFW₁-Mäuse; conditions: for Zahl der überlebenden Tiere in den folgenden Tagen nach der Infektion: 2 x 100 mg/kg oral on the day of infection, 10 animals at day 0
# Procedure: Wirksamkeit von Nikkomycin X und Z in dem Tiermodell von Murine candidosis.
# Gezüchtete CFW₁-Mäuse wurden intravenös mit 6 x 10⁵ cfu von C. albicans infiziert. Die orale Therapie wurde gleichzeitig mit der Infektion gestartet. Die Mittel wurden einzeln mit Nährnadeln in Volumina von 0,5 ml ausgegeben.
# In dem Modell der septischen Murine candidosis, das häufig zum Testen von Azolen verwendet wird, wird die Behandlung der Tiere gleichzeitig mit der Infektion gestartet, indem man 2 x 100 mg/kg beider Zubereitungen am Tag der Infektion verabreichte. Diese Verabreichungsweise erzeugt nur eine leichte Verzögerung in der lethalen Kinetik (Tabelle 1).
Structure (SMILES),Reduktion des Endpunktes für die Kombination hinsichtlich des Azolendpunktes [1],Zahl der überlebenden Tiere in den folgenden Tagen nach der Infektion (C. albicans; day 3 after infection),Zahl der überlebenden Tiere in den folgenden Tagen nach der Infektion (C. albicans; day 6 after infection),"Wirksamkeit (C. albicans; 14-day treatment, daily dose 2 x 10 mg/kg, Fig. 2)","Wirksamkeit (C. albicans; treatment period 3 days, 100 mg/kg, Fig. 1)"
Clc1ccccc1C(c1ccccc1)(c1ccccc1)n1ccnc1 [Clotrimazol],≥ 50 -fach,–,–,–,–
C[C@@H]([C@H](N)C(=O)N[C@H](C(=O)O)[C@H]1O[C@@H](n2cc(C=O)[nH]c2=O)[C@H](O)[C@@H]1O)[C@H](O)c1ccc(O)cn1 [Nikkomycin X],–,10,3,–,–
C[C@@H]([C@H](N)C(=O)N[C@H](C(=O)O)[C@H]1O[C@@H](n2ccc(=O)[nH]c2=O)[C@H](O)[C@@H]1O)[C@H](O)c1ccc(O)cn1 [Nikkomycin Z],–,6,5,wirksamer als 2 x 100 mg/kg,vergleichbar zu der von 25 mg/kg Ketoconazol oder Vibunazol
